Data taken from patent US20250064778A1, “GRANULES COMPRISING PROGERININ, AND SACHETS USING SAME” (PRG S&TECH INC., priority 2022, published 2025).

Legend:
[1] = Stability of spray-dried solid dispersions under storage for 2 weeks; format: physicochemical; conditions: for Appearance / HPLC results Purity / XRPD: open
[2] = Excipient compatibility of progerinin; format: physicochemical; conditions: mixed with HPMC E3, TPGS and potassium sorbate 1:10, 40° C./75% RH, 2 weeks
[3] = cited from earlier work
progerin = conditions: cited from earlier work
[4] = system: progeria-induced animal model; conditions: cited from earlier work

Q: Which Appearance ([1]; 25° C./60% RH, after 1 week) does the source give for CC1(C)Oc2cc3oc(=O)ccc3cc2C[C@@H]1OC/C=C/c1ccccc1 [progerinin, (7S)-(+)-8,8-dimethyl-7-(3-phenylallyloxy)-7,8-dihydro-6H-pyrano[3,2-g]chromen-2-one] here?
A: White

Q: What about the “HPLC results Purity” value ([1]; 25° C./60% RH, after 1 week) of the same compound?
A: 99.85%

Q: And the XRPD ([1]; 25° C./60% RH, after 1 week)?
A: Unchanged

Q: What about the “HPLC results Purity” value ([1]; 25° C./60% RH, after 2 weeks) of the same compound?
A: 99.85%

Q: What about the XRPD ([1]; 25° C./60% RH, after 2 weeks) of the same compound?
A: Unchanged

Q: And the Appearance ([1]; 40° C./75% RH, after 1 week)?
A: White

Q: What about the “HPLC results Purity” value ([1]; 40° C./75% RH, after 1 week) of the same compound?
A: 99.85%

Q: And the XRPD ([1]; 40° C./75% RH, after 1 week)?
A: Unchanged

Q: And the “HPLC results Purity” value ([1]; 40° C./75% RH, after 2 weeks)?
A: 99.85%

Q: What about the XRPD ([1]; 40° C./75% RH, after 2 weeks) of the same compound?
A: Unchanged

Q: What about the Initial purity ([1]; initial) of the same compound?
A: 99.85%

Q: What about the “compatibility with excipients (effect on the drug)” value [2] of the same compound?
A: had no effect on the drug

Q: What about the “solubility in aqueous media” value ([3]; BCS criteria) of the same compound?
A: low solubility

Q: What about the solubility in water [3] of the same compound?
A: close to zero

Q: What about the suppressing progerin expression (progerin) of the same compound?
A: excellent effects of suppressing progerin expression

Q: What about the survival period [4] of the same compound?
A: prolonging a survival period
